Data reported in patent US20120207733A1 (priority 2011, published 2012).

System: DU-145 cells
Format: cell-based, Human

Question: For `C=C1[C@@H](C)[C@H]2[C@H](Cc3ccccc3)NC(=O)[C@]23[C@H](OC(C)=O)/C=C/[C@@](C)(O)C(=O)[C@@H](C)C/C=C/[C@H]3[C@@H]1O` [Cytochalasin-D], which “Effect on cell migration” value is on record?
Answer: did not migrate

Question: What about the “Relative Wound Density at 24 Hours, Mean” value of the same compound?
Answer: 3.3 ± 0.2

Question: What about the “Relative Wound Density at 24 Hours, Percent Relative to Media” value of the same compound?
Answer: 4%
